Measurements taken from PMC12560828, “Chemical structure drives developmental toxicity of alkyl-substituted naphthalenes in zebrafish” (Environment international, 2025).

Tests used:
[1] = system: zebrafish larvae, 120 hpf; assay: Larval photomotor response (LPR) assay after vial exposure; type: in vivo, Danio rerio; conditions: LPR
Summary of the method: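 Embryos bleached at 6 hpf, exposed in sealed glass vials (8 per vial, DMSO stock at 200x) with rotation overnight at 28 °C, then singulated into chemical-free medium and kept dark at 28 °C. Movement tracked minutes 6–24 at 120 hpf, 6 s bins log-normalized to AUC; LEL per light/dark period from first cycle; nominal water concentrations, dead/malformed larvae excluded.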

[2] = system: early life stage zebrafish; design: method as in Geier et al., 2018a; conditions: 96-well plate format; ref Geier et al., 2018a; cited from earlier work

Structure (SMILES): Cc1ccc2cc(C)ccc2c1 [2,6-dimethylnaphthalene]
- fold_change ([1]; period dark, round 1, conc 3.125): -0.2769
- fold_change ([1]; period dark, round 1, conc 6.25): -0.4387
- fold_change ([1]; period dark, round 1, conc 12.5): -0.1031
- fold_change ([1]; period dark, round 1, conc 25): -0.6771
- fold_change ([1]; period dark, round 1, conc 50): -0.3061
- fold_change ([1]; period light, round 1, conc 3.125): -0.2359
- fold_change ([1]; period light, round 1, conc 6.25): -0.1972
- fold_change ([1]; period light, round 1, conc 12.5): 0.2009
- fold_change ([1]; period light, round 1, conc 25): -0.2222
- fold_change ([1]; period light, round 1, conc 50): -0.2493
- LPR effects [2]: all but 2,6-dimethylnaphthalene caused LPR effects
